This is an account of results in publication PMC8387413 (Bioorganic chemistry, 2021).

In series [1] the test system is γδ T cells. The conditions noted are these: read-out: EC50 (γδ T cell stimulation), cited from earlier work.
Series [2] deals with γδ T cells. Nature of the series: T cell proliferation: expansion of γδ T cells from human PBMCs, flow cytometry. Type of series: cell-based. The note with it: for EC50: Homo sapiens, T-cell. Background: Flow cytometry measures light scatter and fluorescence of single cells or particles in a stream.
A further series deals with K562 cells. Nature of the series: K562 viability. Type of series: cell-based. The note with it: for IC50: read-out: Toxicity IC50 μM (95% CI); for direct toxicity (in words): K562 cells, 72 hours of exposure, doses of 100 μM or lower.
Series [3] relates to γδ T cells. It counts as cell-based. The note with it: Homo sapiens, K562, read-out: ELISA EC50 μM (95% CI). On the technique in general: An ELISA detects its analyte on a solid surface through an enzyme-linked reagent.
[4] abbreviates: read-out: Proliferation EC50 μM (95% CI).
The mark [5] stands for this setting: K562 leukemia cells, 72 hours exposure, n=3.

The structures appear in SMILES notation. Where two headings read alike, the source gives them in different places.

With `C/C(=C\CCP(=O)(O)O)CO` [C-HMBP], in the series with γδ T cells [1], the EC50 was about 4 µM.

The term IC50 denotes the concentration at which inhibition is half-maximal. In the case of `COP(=O)(CC/C=C(\C)CO)OCOC(=O)c1ccc(/N=N/c2ccc(N(C)C)cc2)cc1` (stereo not drawn) [Compound 14, ((((E)-5-Hydroxy-4-methylpent-3-en-1-yl)(methoxy)phosphoryl)oxy)methyl 4-((E)-(4-(dimethylamino)phenyl)diazenyl)benzoate], the EC50 in the series with γδ T cells [2] (read-out: EC50 for stimulation of γδ T cells) was 0.11 µM; in the series on γδ T cells [2] (setting [4]) it was 0.099 µM; with γδ T cells [3], 0.11 µM. Also, the IC50 in the series with K562 cells (Homo sapiens, K562, 72 h) was 36 µM. The “direct toxicity (in words)” value in the series on K562 cells is reported as “toxic at 100 μM”.

`COP(=O)(CC/C=C(\C)CO)Oc1ccc2ccc(=O)oc2c1` (stereo not drawn) [Compound 16, (E)-Methyl (2-oxo-2H-chromen-7-yl)(5-hydroxy-4-methylpent-3-en-1-yl)phosphonate]: the half-maximal inhibitory concentration (IC50) in the series on K562 cells (setting [5]) was over 100 µM.

For the molecule `C/C(=C\CCP(=O)(O)Oc1ccc2ccc(=O)oc2c1)CO` [Compound 17], the IC50 in the series on K562 cells (setting [5]) is over 100 µM.

Regarding `C/C(=C\CCP(=O)(OCOC(=O)c1ccc(/N=N/c2ccc(N(C)C)cc2)cc1)Oc1ccc2ccc(=O)oc2c1)CO` (stereo not drawn) [Compound 18, ((((E)-5-Hydroxy-4-methylpent-3-en-1-yl) ((2-oxo-2H-chromen-7-yl)oxy)phosphoryl)oxy)methyl 4-((E)-(4-(dimethylamino)phenyl)diazenyl)benzoate], the EC50 in the series with γδ T cells [2] (setting [4]) was found to be 0.0005 µM; in the series with γδ T cells [3], 0.0075 µM. Moreover, in the series on K562 cells (Homo sapiens, K562, 72 h), the IC50 worked out at 27 µM. Further, in the series with K562 cells, the “direct toxicity (in words)” value is listed as “toxic at 100 μM”.

With `COc1ccc2cc(C(=O)NCCc3ccc(OP(=O)(CC/C=C(\C)COC(C)=O)OC)cc3)c(=O)oc2c1` (stereo not drawn) [Compound 22, (E)-5-(Methoxy(4-(2-(7-methoxy-2-oxo-2H-chromene-3-carboxamido)ethyl)phenoxy)phosphoryl) -2-methylpent-2-en-1-yl acetate], the figures for the EC50 with γδ T cells [2] (setting [4]) and in the series on γδ T cells [3] were 5.8 µM and over 10 µM, respectively. For the same molecule, the “stimulation of proliferation (in words)” value in the series on γδ T cells [2] (γδ T cells from human PBMCs) is given as “did not indicate substantial stimulation of proliferation”. For the same molecule, the IC50 in the series with K562 cells (Homo sapiens, K562, 72 h) was over 100 µM.

Take `COc1ccc2cc(C(=O)NCCc3ccc(OP(=O)(CC/C=C(\C)COC(C)=O)OCOC(=O)c4ccc(/N=N/c5ccc(N(C)C)cc5)cc4)cc3)c(=O)oc2c1` (stereo not drawn) [Compound 23]: the IC50 in the series on K562 cells (setting [5]) was over 100 µM.

As for `C/C(=C\COP(=O)(O)OP(=O)(O)O)CO` [HMBPP, (E)-4-hydroxy-3-methyl-but-2-enyl diphosphate], the EC50 in the series on γδ T cells [1] (in our assays) is about 0.0005 µM.
